Molecular target: T1, human chemokine receptor 2 isoform B (Homo sapiens, UniProt P41597)
T1 construct: host or cells: CHOK1-CCR2B-A5 (CHO-K1)
T1 sequence (P41597 1-360 isoform P41597-2): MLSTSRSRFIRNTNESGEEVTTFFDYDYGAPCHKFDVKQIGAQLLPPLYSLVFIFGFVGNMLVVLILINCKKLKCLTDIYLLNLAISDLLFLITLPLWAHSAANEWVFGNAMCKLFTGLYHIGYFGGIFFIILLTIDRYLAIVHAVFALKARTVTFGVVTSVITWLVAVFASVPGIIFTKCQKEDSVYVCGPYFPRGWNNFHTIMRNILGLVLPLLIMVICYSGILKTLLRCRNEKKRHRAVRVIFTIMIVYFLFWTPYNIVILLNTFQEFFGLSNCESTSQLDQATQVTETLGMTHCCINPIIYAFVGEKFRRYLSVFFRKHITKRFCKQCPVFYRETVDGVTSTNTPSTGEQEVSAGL
Assay: Calcium mobilization assay (FLIPR, CHOK1-CCR2B-A5 cells, 20 nM MCP-1)
Type: cell-based
Conditions: Ca mobilisation assay, CCR2, antagonist activity vs 20 nM MCP-1
Method in brief: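 Antagonism read as IC50 against 20 nM MCP-1-evoked calcium rise (peak minus baseline Fluo-4 signal, FLIPR) in CCR2B-overexpressing CHO-K1 cells. Compounds were preincubated 20-30 min at 30 °C, with agonist activity recorded for 80 s on addition.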

Row | IC50 [nM] | SMILES
1 | 244 | O=C(/C=C/c1ccc(Cl)c(Cl)c1)N1CCC(=O)N(CCCCN2CCC(O)C2)CC1 (racemic) [Example 433]
2 | 281 | COC1CCCN(CCCCN2CCN(C(=O)/C=C/c3ccc(Cl)c(Cl)c3)CCC2=O)C1 (racemic) [Example 435]
3 | 103 | CC1CN(CCCCN2CCN(C(=O)/C=C/c3ccc(Cl)c(Cl)c3)CCC2=O)CCC1O (racemic) [Example 440]
4 | 354 | CC1(CO)CCCN(CCCCN2CCN(C(=O)/C=C/c3ccc(Cl)c(Cl)c3)CCC2=O)C1 (racemic) [Example 445]
5 | 626 | COCC1(C)CCCN(CCCCN2CCN(C(=O)/C=C/c3ccc(Cl)c(Cl)c3)CCC2=O)C1 (racemic) [Example 446]
6 | 92 | CC1(CO)CCCCN1CCCCN1CCN(C(=O)/C=C/c2ccc(Cl)c(Cl)c2)CCC1=O (racemic) [Example 447]
7 | 181 | CC1CCN(CCCCN2CCN(C(=O)/C=C/c3ccc(Cl)c(Cl)c3)CCC2=O)CC1O (racemic) [Example 448]
8 | 243 | O=C(/C=C/c1ccc(Cl)c(Cl)c1)N1CCC(=O)N(CCCCN2CCC(O)C(CO)C2)CC1 (racemic) [Example 450, (rac)-1-[(E)-3-(3,4-Dichloro-phenyl)-acryloyl]-4-[4-(4-hydroxy-3-hydroxymethyl-piperidin-1-yl)-butyl]-[1,4]diazepan-5-one]
9 | 682 | COCC1CN(CCCCN2CCN(C(=O)/C=C/c3ccc(Cl)c(Cl)c3)CCC2=O)CCC1O (racemic) [Example 451]
10 | 230 | C[C@@H]1CCN(CCCCN2CCN(C(=O)/C=C/c3ccc(Cl)c(Cl)c3)CCC2=O)C[C@H]1O (racemic) [Example 454, (rac)-1-[(E)-3-(3,4-Dichloro-phenyl)-acryloyl]-4-[4-(trans-3-hydroxy-4-methyl-piperidin-1-yl)-butyl]-[1,4]diazepan-5-one]
11 | 106 | C[C@@H]1CN(CCCCN2CCN(C(=O)/C=C/c3ccc(Cl)c(Cl)c3)CCC2=O)CC[C@H]1O (racemic) [Example 455, (rac)-1-[(E)-3-(3,4-Dichloro-phenyl)-acryloyl]-4-[4-(trans-4-hydroxy-3-methyl-piperidin-1-yl)-butyl]-[1,4]diazepan-5-one]
12 | 16 | O=C(/C=C/c1ccc(Cl)c(Cl)c1)N1CCC(=O)N(CCCCN2CCC3(CC3)C(O)C2)CC1 (racemic) [Example 456]
13 | 283 | O=C(/C=C/c1ccc(Cl)c(Cl)c1)N1CCC(=O)N(CCCCN2CCC(O)C3(CC3)C2)CC1 (racemic) [Example 457]
14 | 148 | C[C@@H]1CN(CCCCN2CCN(C(=O)/C=C/c3ccc(Cl)c(Cl)c3)CCC2=O)CC[C@@H]1O (racemic) [Example 458]
15 | 267 | CC1(CO)CCN(CCCCN2CCN(C(=O)/C=C/c3ccc(Cl)c(Cl)c3)CCC2=O)CC1 (racemic) [Example 459]
16 | 41 | CC1(CO)CCCN1CCCCN1CCN(C(=O)/C=C/c2ccc(Cl)c(Cl)c2)CCC1=O (racemic) [Example 462]
17 | 226 | CC1(C)CN(CCCCN2CCN(C(=O)/C=C/c3ccc(Cl)c(Cl)c3)CCC2=O)CCC1O (racemic) [Example 464]
18 | 389 | CC(=O)NC1CCCN(CCCCN2CCN(C(=O)/C=C/c3ccc(Cl)c(Cl)c3)CCC2=O)C1 (racemic) [Example 466]
19 | 1160 | O=C(/C=C/c1ccc(Cl)c(Cl)c1)N1CCC(=O)N(CCCCN2CCC3(CCCO3)CC2)CC1 (racemic) [Example 467]
20 | 347 | O=C(/C=C/c1ccc(Cl)c(Cl)c1)N1CCC(=O)N(CCCCN2CC[C@H](CO)[C@H](O)C2)CC1 (racemic) [Example 468]
21 | 61 | COC[C@H]1CCN(CCCCN2CCN(C(=O)/C=C/c3ccc(Cl)c(Cl)c3)CCC2=O)C[C@H]1O (racemic) [Example 469]
22 | 85 | COC[C@H]1CCN(CCCCN2CCN(C(=O)/C=C/c3ccc(Cl)c(Cl)c3)CCC2=O)C[C@H]1OC (racemic) [Example 470]
23 | 43 | O=C(/C=C/c1ccc(Cl)c(Cl)c1)N1CCC(=O)N(CCCCN2CC[C@@H](CO)[C@H](O)C2)CC1 (racemic) [Example 471]
24 | 418 | CO[C@@H]1CN(CCCCN2CCN(C(=O)/C=C/c3ccc(Cl)c(Cl)c3)CCC2=O)CC[C@@H]1CO (racemic) [Example 472]

Row | IC50 [nM] | SMILES
25 | 20 | CC1CCC(O)CN1CCCCN1CCN(C(=O)/C=C/c2ccc(Cl)c(Cl)c2)CCC1=O (racemic) [Example 475]
26 | 18 | O=C(/C=C/c1ccc(Cl)c(Cl)c1)N1CCC(=O)N(CCCCN2CC(O)CCC2CO)CC1 (racemic) [Example 476]
27 | 313 | COC1CCC(CO)N(CCCCN2CCN(C(=O)/C=C/c3ccc(Cl)c(Cl)c3)CCC2=O)C1 (racemic) [Example 477]
28 | 998 | COCC1CC(OC)C(O)CN1CCCCN1CCN(C(=O)/C=C/c2ccc(Cl)c(Cl)c2)CCC1=O (racemic) [Example 478]
29 | 232 | COCC1CCC(O)CN1CCCCN1CCN(C(=O)/C=C/c2ccc(Cl)c(Cl)c2)CCC1=O (racemic) [Example 479]
30 | 53 | O=C(/C=C/c1ccc(Cl)c(Cl)c1)N1CCC(=O)N(CCCCN2CCC[C@H](O)[C@@H]2CO)CC1 (racemic) [Example 480]
31 | 9 | CC1(C)CCN(CCCCN2CCN(C(=O)/C=C/c3ccc(Cl)c(Cl)c3)CCC2=O)CC1O (racemic) [Example 481]
32 | 75 | NC(=O)COC1CCC(CO)N(CCCCN2CCN(C(=O)/C=C/c3ccc(Cl)c(Cl)c3)CCC2=O)C1 (racemic) [Example 485]
33 | 205 | COCC1C(O)CCCN1CCCCN1CCN(C(=O)/C=C/c2ccc(Cl)c(Cl)c2)CCC1=O (racemic) [Example 486]
34 | 14 | CC1CCC(O)CN1CCCCN1CCN(C(=O)/C=C/c2ccc(Cl)c(Cl)c2)CCC1=O (racemic) [Example 487]
35 | 618 | COCC1C(O)CCC(C)N1CCCCN1CCN(C(=O)C=Cc2ccc(Cl)c(Cl)c2)CCC1=O (racemic) [Example 488, (rac,cis)-1-[(E)-3-(3,4-Dichloro-phenyl)-acryloyl]-4-[4-(3-hydroxy-2-methoxymethyl-6-methyl-piperidin-1-yl)-butyl]-[1,4]diazepan-5-one]
36 | 84 | CC1(C)CCN(CC(O)CN2CCN(C(=O)/C=C/c3ccc(F)c(F)c3)CCC2=O)CC1O (racemic) [Example 499]
37 | 316 | C[C@@H]1C[C@H](O)CN(CC(O)CN2CCN(C(=O)/C=C/c3ccc(F)c(F)c3)CCC2=O)C1 (mixture of isomers) [Example 504]
38 | 848 | O=C(/C=C/c1ccc(Cl)c(Cl)c1)N1CCC(=O)N(CC(O)CN2CC[C@H](O)[C@H](F)C2)CC1 (relative stereo) [Example 287]
39 | 504 | C[C@H]1[C@H](O)CCCN1CC(O)CCN1CCN(C(=O)/C=C/c2ccc(Cl)c(Cl)c2)CCC1=O (relative stereo) [Example 362]
40 | 323 | O=C(/C=C/c1ccc(F)c(Cl)c1)N1CCC(=O)N(CCCCN2CC[C@H](F)[C@@H](O)C2)CC1 (relative stereo) [Example 389]
41 | 25 | CC1CCN(CCCN2CCN(C(=O)/C=C/c3ccc(F)c(Cl)c3)CCC2=O)CC1O (single isomer, unassigned) [Example 191, 1-[(E)-3-(3-Chloro-4-fluoro-phenyl)-acryloyl]-4-[3-((−, cis)-3-hydroxy-4-methyl-piperidin-1-yl)-propyl]-[1,4]diazepan-5-one]
42 | 57 | CC1CCN(CCCN2CCN(C(=O)C=Cc3ccc(Cl)c(Cl)c3)CCC2=O)CC1O (single isomer, unassigned) [Example 259, 1-[(E)-3-(3,4-Dichloro-phenyl)-acryloyl]-4-[3-((+, cis)-3-hydroxy-4-methyl-piperidin-1-yl)-propyl]-[1,4]diazepan-5-one]
43 | 9 | CC1CCN(CCCN2CCN(C(=O)C=Cc3ccc(Cl)c(Cl)c3)CCC2=O)CC1O (single isomer, unassigned) [Example 260, 1-[(E)-3-(3,4-Dichloro-phenyl)-acryloyl]-4-[3-((−, cis)-3-hydroxy-4-methyl-piperidin-1-yl)-propyl]-[1,4]diazepan-5-one]
44 | 6 | CC1(CO)CCN(CC(O)CN2CCN(C(=O)C=Cc3ccc(Cl)c(Cl)c3)CCC2=O)CC1O (single isomer, unassigned) [Example 330]
45 | 59 | CC1(CO)CCN(CC(O)CN2CCN(C(=O)C=Cc3ccc(Cl)c(Cl)c3)CCC2=O)CC1O (single isomer, unassigned) [Example 331]
46 | 216 | CC1CCN(CCCN2CCN(C(=O)C=Cc3ccc(Cl)c(F)c3)CCC2=O)CC1O (single isomer, unassigned) [Example 491, 1-[(E)-3-(4-Chloro-3-fluoro-phenyl)-acryloyl]-4-[3-((+,cis)-3-hydroxy-4-methyl-piperidin-1-yl)-propyl]-[1,4]diazepan-5-one]
47 | 26 | CC1CCN(CCCN2CCN(C(=O)C=Cc3ccc(Cl)c(F)c3)CCC2=O)CC1O (single isomer, unassigned) [Example 492, 1-[(E)-3-(4-Chloro-3-fluoro-phenyl)-acryloyl]-4-[3-((−,cis)-3-hydroxy-4-methyl-piperidin-1-yl)-propyl]-[1,4]diazepan-5-one]
48 | 681 | O=C(/C=C/c1cccc(Cl)c1)N1CCC(=O)N(CCN2CCCC2)CC1 [Example 1, 1-[(E)-3-(3-Chloro-phenyl)-acryloyl]-4-(2-pyrrolidin-1-yl-ethyl)-[1,4]diazepan-5-one]

From US7632829B2, “Diazepan derivatives” (Hoffmann-La Roche Inc., priority 2006, dated 2009)
